Counter-ions that a name gives are not always drawn.
Key:
collagenase = settings: literature or U.S. Pat. No. 4,297,372; cited from earlier work
corneal ulcerations = settings: directly applied; alkali burned rabbit; cited from earlier work
[1] = biological target: T1, human skin fibroblast collagenase (Homo sapiens, UniProt P03956); assay: Collagenase Assay, Test Code 006 (degradation of radiolabeled native collagen fibrils); type: biochemical; settings: test conc.: 30 μg/ml; ratio of weight (μg) for 50% inhibition vs reference 6,6'-[ureylenebis(m-phenylenecarbonylimino)] analog; >1 = less active
T1 construct: endogenous in cells; host or cells: human skin fibroblasts
T1 sequence (P03956 100-469): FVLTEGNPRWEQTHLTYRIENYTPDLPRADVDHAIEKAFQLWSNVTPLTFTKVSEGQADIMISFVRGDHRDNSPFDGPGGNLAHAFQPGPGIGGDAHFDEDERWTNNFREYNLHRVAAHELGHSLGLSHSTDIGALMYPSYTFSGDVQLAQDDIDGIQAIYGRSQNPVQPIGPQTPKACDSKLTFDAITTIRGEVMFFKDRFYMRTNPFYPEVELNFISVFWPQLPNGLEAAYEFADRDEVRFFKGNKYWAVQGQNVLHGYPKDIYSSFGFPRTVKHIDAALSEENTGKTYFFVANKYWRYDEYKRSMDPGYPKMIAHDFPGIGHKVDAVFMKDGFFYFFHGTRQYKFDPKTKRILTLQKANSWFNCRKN
Procedure: (i) Collagenase Assay--Test Code 006
A collagenase assay was performed by a modification of the method of Harper, et al., Biochem., 10, 3035 (1971). In a typical assay (total volume of 0.45 ml), 100 μl of the activated enzyme was added to the ^14 C-labeled collagen fibrils (250 μl) followed by 100 μl of 50 mM cacodylate, pH 7.4, containing 5 mM calcium chloride. After incubation at 37° C. for 16 hours, the tubes were centrifuged in a Beckman microfuge for five minutes at full speed. An aliquot (200 μl) of the supernatant, representing collagenase digestion products of the fibril, was assayed for radioactivity. The effect of the test compound on collagen degradation by collagenase was examined as follows:
Varying concentrations of the test compound (in distilled water) were added to the assay tubes containing active collagenase (total volume 450 μl) and after 16 hours the amount of radioactivity in the supernatant was determined. Appropriate blanks and trypsin controls were run in parallel.
The result is expressed as an ID50 collagenase value which represents a ratio of the weight (μg) of the representative compound required for 50% inhibition of collagenase over the weight (μg) of 6,6'-[ureylenebis(m-phenylenecarbonylimino)]bis[4-hydroxy-2-naphthalenesulfonic acid]disodium salt required for 50% inhibition of collagenase.

[2] = In vitro binding (competition) assay with 14C reference compound on tooth powder; settings: 1 mg tooth powder, PBS, 60 minutes at 37° C.; relative to reference 6,6'-[ureylenebis(m-phenylenecarbonylimino)] analog; >1 = less efficient
Excerpt: Using (radioactive) ^14 C-6,6'-[ureylenebis(m-phenylenecarbonylimino)]bis[4-hydroxy-2-naphthalenesulfonic acid]disodium salt, an in vitro binding (competition) assay procedure has been established which involves an insoluble substrate such as tooth powder which will bind the ^14 C-6,6'-[ureylenebis(m-phenylenecarbonylimino)]bis[4-hydroxy-2-naphthalenesulfonic acid]disodium salt. The amount of ^14 C-6,6'-[ureylenebis(m-phenylenecarbonylimino)]bis[4-hydroxy-2-naphthalenesulfonic acid]disodium salt bound is determined by washing away the unbound radioactive compound and counting CPM (counts per minute) of the insoluble tooth powder/^14 C-6,6'-[ureylenebis(m-phenylenecarbonylimino)]bis[4-hydroxy-2-naphthalenesulfonic acid]disodium salt complex. […] The inhibiting effect of the test compound on binding compared to non-radioactive 6,6'-[ureylenebis(m-phenylenecarbonylimino)]bis[4-hydroxy-2-naphthalenesulfonic acid]disodium salt was determined as follows: A one mg amount of tooth powder was incubated in one ml of phosphate buffered saline (PBS) with 10 μg of ^14 C-6,6'-[ureylenebis(m-phenylenecarbonylimino)]bis[4-hydroxy-2-naphthalenesulfonic acid]disodium salt and varying dose amounts (ranging from 0 to 2 mg) of the same cold (non-radioactive) compound. […]

corneal ulceration = settings: human; cited from earlier work
[3] = Binding to insoluble collagenous structures; settings: teeth, dentin, gingiva and the like
[4] = compared with cysteine; cited from earlier work

Compound	collagenase inhibition / inhibition of collagen degradation (collagenase)	also measured
c1cnc2c(c1)ccc1cccnc12 [1,10-phenanthroline]	collagenase inhibitors	
Cc1cc(-c2ccc(/N=N/c3c(S(=O)(=O)O)cc4cc(S(=O)(=O)O)cc(N)c4c3O)c(C)c2)ccc1/N=N/c1c(S(=O)(=O)O)cc2cc(S(=O)(=O)O)cc(N)c2c1O [trypan blue]	inhibiting the activity of collagenase	
Cc1ccc(C(=O)Nc2ccc(S(=O)(=O)O)c3cc(S(=O)(=O)O)cc(S(=O)(=O)O)c23)cc1NC(=O)c1cccc(NC(=O)Nc2cccc(C(=O)Nc3cc(C(=O)Nc4ccc(S(=O)(=O)O)c5cc(S(=O)(=O)O)cc(S(=O)(=O)O)c45)ccc3C)c2)c1 [Suramin]	not inhibiting the action of collagenase	
O=C([O-])CN(CCN(CC(=O)[O-])CC(=O)[O-])CC(=O)[O-].[Ca+2].[Ca+2] [Calcium ethylenediaminetetraacetate]		frequency of corneal ulceration (corneal ulcerations): reduce the frequency of ulceration
O=C(Nc1ccc(S(=O)(=O)Nc2ccc3cc(S(=O)(=O)O)cc(O)c3c2)cc1)Nc1ccc(S(=O)(=O)Nc2ccc3cc(S(=O)(=O)O)cc(O)c3c2)cc1 [6,6'-[Ureylenebis(p-phenylenesulfonylimino)]bis-[4-hydroxy-2-naphthalenesulfonic acid]disodium salt]		ID50 Collagenase Ratio [1]: 1.73; ID50 Binding Ratio [2]: 1.55
N[C@@H](CS)C(=O)O [cysteine]	collagenase inhibitors	treatment of acute and chronic corneal ulceration (corneal ulceration): effective in the treatment of acute and chronic corneal ulceration
sodium auriothiomalate	collagenase inhibitors	
O=C(Nc1cccc(C(=O)Nc2ccc3cc(S(=O)(=O)O)cc(O)c3c2)c1)Nc1cccc(C(=O)Nc2ccc3cc(S(=O)(=O)O)cc(O)c3c2)c1 [6,6'-[ureylenebis(m-phenylenecarbonylimino)]bis[4-hydroxy-2-naphthalenesulfonic acid]disodium salt]	inhibitor of the degradation of collagen	reversibility and saturability of binding [3]: saturable and reversible
O[C@H](CS)[C@H](O)CS (racemic) [dithiothreitol]	collagenase inhibitors	
CC(=O)N[C@@H](CS)C(=O)O [acetylcysteine]		frequency of corneal ulceration (corneal ulcerations): reduce the frequency of ulceration; treatment of acute and chronic corneal ulceration (corneal ulceration): effective in the treatment of acute and chronic corneal ulceration; stability [4]: greater stability
α2 -macroglobulin: serum component; naturally occurring collagenase inhibitor	collagenase inhibitors	

Reference: patent USH83H, “Dental antiplaque agents and inhibitors of connective tissue destruction” (American Cyanamid Company, priority 1985, dated 1986)
